Results published in patent US20240415878A1, “Compositions and Methods for Modulating Mitochondrial Function” (Board of Regents, The University of Texas System, priority 2021, published 2024).

Columns and labels:
HIF-1α = details: for HIF-1α stabilization: higher concentrations causing increased stabilization
Excerpt: HIF-1α is stabilized in Mrs2−/− mice. To examine the intrinsic role of Mrs2, Mrs2^−/− mice were challenged to LPS-induced inflammatory response. It was noticed that there was a barely detectable HIF-1α stabilization in control but a significant HIF-1α protein accumulation following LPS stimulation in Mrs2^−/− hepatocytes (Daw et al., 2020). […] It was envisioned that loss of Mrs2 in hepatocyte mitochondria might control metabolite fluxes that regulates HIF-1α stability under normoxic conditions. HIF-1α is the most commonly studied transcription factor that responds to oxygen tension and its stabilization controls numerous metabolic cascades, including glycolysis and oxidative phosphorylation (Kaelin and Ratcliffe, 2008; Lum et al., 2007; Semenza, 2013). A targeted metabolite screen was conducted to identify whether these metabolites potentially altered in Mrs2^−/− control HIF-1α stabilization. WT hepatocytes were treated with the PHD inhibitor FG-4952 for 6 hours in the presence or absence of metabolites (Buckley et al., 2012). […] Next it was explored whether citric acid mediated HIF-1α destabilization is a hydroxylation dependent mechanism by reconstitution of hydroxylation-dead mutant HIF-1α in COS-7 cells (Yan et al., 2007). […] Next tested the potency of citric acid and sodium citrate was tested. Hepatocytes isolated from WT or Mrs2^−/− mice were treated for 6 hours. HIF-1α stabilization was less affected by di- or tri-sodium citrate than by citric acid (FIG. 9G). […] The citric acid-mediated HIF-1α destabilization was intact in multiple chemical modalities (FIG. 9H) and the intracellular chelation of Mg^2+ ions suppressed FG-4952-induced HIF-1α stabilization (FIG. 9I). […] Furthermore, COS-7 cells were more sensitive to the HIF-1α stabilizing effect compared to hepatocytes. […] Next HIF-1α abundance was tested in liver tissues harvested from dietary cohorts. HIF-1α protein expression/stabilization was prominent in both Mrs2^−/− and Mrs2^−/− WD, whereas HIF-1α protein was nearly completely absent in WT WD (FIG. 9M). This supports the elevation of HIF-1α protein level as a key mechanism driving transcription changes in Mrs2^−/− WD livers.
Immunoblotting. Crushed tissues were homogenized in lysis buffer (ThermoFisher) on ice for one minute (20-30 strokes) using an automatic Dounce homogenizer set to 2000 RPM. Whole cell lysate was prepared in lysis buffer (Abcam) using 3 sets of 3-second sonication (power level 3) intervals on ice. Protein concentration was estimated using Pierce BCA assay kit and samples were prepared and heated for 90° C. for 5 minutes. Equal amounts of protein were loaded and separated on 4%-12% Bis-Tris polyacrylamide gel (Thermo Fisher Scientific), transferred to a PVDF membrane, blocked for 1-2 h using 5% fat free skim milk, washed and finally, probed with corresponding antibodies as specified below. Antibodies were from Cell Signaling Technology (HIF-1α and Hydroxy HIF-1α dilution 1:3000, MCU dilution 1.5000, MICU1 dilution 1:3000), Abcam Abcam (CPT-1a, CPT-2, OXPHOS cocktail dilution 1:3000), ZYMED Laboratories (β-actin; dilution 1:1,000), and Amersham (secondary antibodies conjugated with peroxidase). Development was done using X-ray film using a series of timed exposures and Image J was used for densitometric analysis on scanned film images.

human MRS2 = target: T1, human MRS2 (Homo sapiens, UniProt Q9HD23); experiment: Dynamic light scattering of purified full-length MRS2 assembly; type: binding; details: 5 mM
T1 construct: 6xHis (N, cleaved yes); made in house; host or cells: BL21 (DE3) codon+ Escherichia coli, pET-28a
T1 sequence (Q9HD23 58-443): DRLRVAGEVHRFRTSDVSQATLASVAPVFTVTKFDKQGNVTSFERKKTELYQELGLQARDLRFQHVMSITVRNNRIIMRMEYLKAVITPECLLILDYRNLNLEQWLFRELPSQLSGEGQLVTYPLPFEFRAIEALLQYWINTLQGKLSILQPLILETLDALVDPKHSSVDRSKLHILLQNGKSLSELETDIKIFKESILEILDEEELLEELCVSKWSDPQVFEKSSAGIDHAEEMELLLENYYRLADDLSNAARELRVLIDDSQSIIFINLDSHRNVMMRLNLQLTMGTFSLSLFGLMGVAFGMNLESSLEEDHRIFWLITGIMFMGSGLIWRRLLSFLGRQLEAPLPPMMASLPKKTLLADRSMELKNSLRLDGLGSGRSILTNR
Protocol: Next, CPACC was assessed to determine if it directly affects the assembly of purified human MRS2 using dynamic light scattering (DLS). DLS has been used to determine whether the complex stability of proteins/channels is altered by molecular chaperones or drugs (Kitamura et al., 2006). Because of the high sensitivity of DLS to changes in complex sizes, full-length Mrs2 assembly was evaluated in the presence Ca^2+ (5 mM), Mg^2+ (5 mM), Co^2+ (5 mM) or the Mrs2 blocker CPACC (0.5 mM) (FIG. 10K, FIG. 10L, FIG. 10M, FIG. 10N, FIG. 10O). […] A concentration-response assessment confirmed robust decreases in hydrodynamic radii at all CPACC concentrations tested and as low as 10 μM (FIG. 10O).
MRS2 cloning, expression, and purification. The full length human MRS2 (NCBI accession NP_065713.1), identified as MRS258-443 (i.e. residues 58-443) and excluding the mitochondrial targeting sequence, was cloned into pET-28a using Ndel and Xhol restriction sites. […]
Dynamic light scattering (DIS). […] The sample was equilibrated for 5 min at 20° C. before 10 autocorrelation function acquisitions of 5 s each were recorded and averaged. […] The dependence of hydrodynamic size on CPACC concentration was determined using ≈0.5 mg/mL protein supplemented with 0.01 mM, 0.05 mM, 0.1 mM, 0.5 mM or 0.75 mM CPACC, using a similar experimental setup as described above and cumulants analysis.

[1] = test system: mitochondrial Mg^2+ uptake; experiment: Metabolite screen for ER Mg2+ depletion and mitochondrial Mg2+ uptake, Mag-Green confocal imaging of hepatocytes; type: cell-based, murine
Excerpt: Targeted Metabolite Screen Identifies Lactate as activator agonist for Mitochondrial Mg^2+ Uptake. To search for agonists that promote mitochondrial Mg^2+ ([Mg^2+]m) uptake, the inventors developed a cell-based confocal fluorescence imaging. As an initial feature, the inventors tested whether GPCR agonist-induced second messengers promote Mg^2+ dynamics. To discriminate intracellular Ca^2+ and Mg^2+ dynamics, MEFs were loaded with cell permeant Ca^2+ indicator, Fluo-4-AM or Mg^2+ indicator Mag green-AM followed by GPCR agonist, thrombin stimulation. […] It is established that intracellular Ca^2+ dynamics could be monitored using a wide range of fluorescent dyes or genetically encoded Ca^2+ indicators. Conversely, Mg^2+ sensitive indicators are very limited due to either lack of agonists or robust dynamic nature. To identify the agonist, primary murine hepatocytes were loaded with [Mg^2+]i indicator, cell permeant Mag Green-AM (5 μM). Subsequently, dye loaded hepatocytes were stimulated with major cellular metabolites and mitochondrial oxidative phosphorylation (OXPHOS) inhibitors following baseline recording. […] As depicted in FIG. 1B, the reciprocal mobilization of free Mg^2+ ion from ER to mitochondria was observed upon stimulation of Lactate (5 mM) in a temporal fashion. To confirm that lactate-induced Mag-Green signals are indeed measured from mitochondrial compartment, hepatocytes were simultaneously loaded with mitochondrial marker Mito-tracker Red and Mag-Green-AM (FIG. 1C-1F). […] Conversely, sodium lactate or lactic acid (5 mM) triggered a rapid depletion of ER signal with concomitant accumulation nucleus followed by mitochondrial elevation of Mag Green signal with a lag time of ˜25 s (FIG. 1D). Besides nucleotides such as ATP, citrate is also known to chelate free Mg^2+. Since ATP is cell impermeable, citrate (5 mM) was applied and intracellular Mg^2+ mobilization monitored. […] To exclude the possibility that acidic pH of medium by lactate could alter membrane polarization, the pH was normalized. Additionally, the inventors also tested whether both sodium lactate as well as lactic acid induce mitochondrial Mg^2+ uptake. Consistent with sodium form of lactate, lactic acid also elicited a rapid ER depletion followed by mitochondrial Mg^2+ influx indicating a lactate role as an activator of Mg^2+ dynamics. Thus, natural metabolite, lactate rapidly mobilizes ER Mg^2+ which led to cytosolic elevation resulting in activation mitochondrial Mg^2+ uptake.
Mitochondrial Mg^2+ Transporter is Temperature Sensitive. […] To assess optimal concentration of lactate required to trigger Mg^2+ depletion from ER compartment and mitochondrial Mg^2+ uptake, both ER-depletion and mitochondrial Mg^2+ uptake was measured in hepatocytes at 37° C. […] However, a consistent stronger response was perceived at 5 mM lactate stimulation (FIG. 2A and 2B). During these studies depletion of ER Mg^2+ was noticed at 37° C. and room temperature (25° C.) upon 5 mM lactate stimulation (FIG. 2C). Remarkably, mitochondrial Mg^2+ uptake was higher at 37° C. and had no effect at 25° C. showing a temperature sensitivity (FIG. 2D). Based on this experimental evidence, a wide range of temperatures were tested. To determine the temperature responsiveness, primary hepatocytes were kept between 25° C.-40° C. and cells were stimulated with 5 mM lactate. […] (FIG. 2F). Intriguingly, the lactate response was not seen at 25° C. or 30° C. (FIG. 2F).
ER-Dependent Efflux of Free Mg^2+ Promotes Mitochondrial Mg^2+ Uptake. […] Since extracellular delivery of lactate rapidly induces ER-depletion and subsequent mitochondrial uptake, it was asked whether rapid influx of lactate regulates this mechanism. Most mammalian cells utilize monocarboxylate transporters (MCT1-4) for plasma membrane lactate entry. To test this, primary hepatocytes were treated with MCT1 or MCT1/2 inhibitors for 60 minutes. […]

MEFs = experiment: Intracellular Ca2+ and Mg2+ dynamics in MEFs (Fluo-4-AM, Mag green-AM); type: cell-based
Excerpt: Targeted Metabolite Screen Identifies Lactate as activator agonist for Mitochondrial Mg^2+ Uptake. To search for agonists that promote mitochondrial Mg^2+ ([Mg^2+]m) uptake, the inventors developed a cell-based confocal fluorescence imaging. As an initial feature, the inventors tested whether GPCR agonist-induced second messengers promote Mg^2+ dynamics. To discriminate intracellular Ca^2+ and Mg^2+ dynamics, MEFs were loaded with cell permeant Ca^2+ indicator, Fluo-4-AM or Mg^2+ indicator Mag green-AM followed by GPCR agonist, thrombin stimulation. […] It is established that intracellular Ca^2+ dynamics could be monitored using a wide range of fluorescent dyes or genetically encoded Ca^2+ indicators. Conversely, Mg^2+ sensitive indicators are very limited due to either lack of agonists or robust dynamic nature. To identify the agonist, primary murine hepatocytes were loaded with [Mg^2+]i indicator, cell permeant Mag Green-AM (5 μM). […] To confirm that lactate-induced Mag-Green signals are indeed measured from mitochondrial compartment, hepatocytes were simultaneously loaded with mitochondrial marker Mito-tracker Red and Mag-Green-AM (FIG. 1C-1F). […] Since ATP is cell impermeable, citrate (5 mM) was applied and intracellular Mg^2+ mobilization monitored. […]

Molecule: [Cl][Co][Cl] [CoCl2, cobalt chloride, reference compound]
- HIF-1α stabilization (HIF-1α; hepatocytes): promoted HIF-α stabilization

Molecule: [Cl-].[Cl-].[Co+2] [Co^2+, reference compound]
- full-length MRS2 complex sizes (DLS) (human MRS2): potently decreased

Molecule: COC(=O)CNC(=O)C(=O)OC [DMOG, reference compound]
- HIF-1α stabilization (HIF-1α; hepatocytes): promoted HIF-α stabilization

Molecule: Cc1nc(C(=O)NCC(=O)O)c(O)c2ccc(Oc3ccccc3)cc12 [FG-4592, reference compound]
- HIF-1α stabilization (HIF-1α; hepatocytes): promoted HIF-α stabilization

Molecule: [Cl-].[Cl-].[Mg+2] [Mg^2+]
- HIF-1α stabilization at high levels (HIF-1α; 10 mM, normoxia): sufficient to promote low levels of HIF-1α stabilization

Molecule: N#C/C(=C\c1cn(-c2ccccc2)c2ccccc12)C(=O)O [UK5099, reference compound]
- effect of blockade of mitochondrial pyruvate entry on HIF-1α stabilization (HIF-1α; hepatocytes): did not prevent HIF-1α stabilization

Molecule: O=C(O)CC(O)(CC(=O)O)C(=O)O [citrate]
- effect on mitochondrial and ER Mg^2+ signals ([1]; 5 mM): partly chelated both mitochondrial and ER Mg^2+ signals

Molecule: CC(O)C(=O)O (centres unmarked) [lactate]
- lactate-induced mitochondrial Mg^2+ uptake ([1]; 5 mM, 25° C. or 30° C.): not seen
- Lactate-induced ER Mg^2+ depletion ([1]; 5 mM, 25° C.-40° C.): seen at all the indicated temperature range
- lactate-induced mitochondrial Mg^2+ uptake ([1]; 5 mM, 34° C. and 40° C.): sub-optimal
- lactate-induced mitochondrial Mg^2+ uptake ([1]; 5 mM, 37° C.): maximal
- concentration that promotes ER depletion and partial uptake of Mg^2+ into mitochondria ([1]; hepatocytes, 37° C.): ≥ 2 mM
- ER Mag-Green signal depletion and mitochondrial Mg^2+ uptake ([1]; metabolite screen, primary murine hepatocytes): rapid and robust depletion of ER Mag-Green signal followed by a subsequent elevation in the mitochondria

Molecule: CC(O)C(=O)O (centres unmarked) [lactic acid]
- lag time to mitochondrial elevation of Mag Green signal ([1]; 5 mM): ~25 s

Molecule: CC(O)C(=O)[O-].[Na+] (centres unmarked) [sodium lactate]
- lag time to mitochondrial elevation of Mag Green signal ([1]; 5 mM): ~25 s

Molecule: thrombin
- cytosolic Ca^2+ mobilization (MEFs; Fluo-4-AM): rapidly elicited cytosolic Ca^2+ mobilization
- intracellular Mg^2+ dynamics (MEFs; Mag green-AM): absent
